The target in assay [1] is Oxidized purine nucleoside triphosphate hydrolase (Homo sapiens) (UniProt P36639). In words: Binding affinity to recombinant C-terminal 6xHis-tagged MTH1 (3 to 156 residues) (unknown origin) expressed in Escherichia coli BL21(DE3) cells assessed as decrease in fluorescence intensity at 1 to 10 uM after 3 mins by tryptophan fluorescence spectroscopy.
Assay [2] shares this target. The experiment in a line: Binding affinity to recombinant C-terminal 6xHis-tagged MTH1 (3 to 156 residues) (unknown origin) expressed in Escherichia coli BL21(DE3) cells assessed as decrease in fluorescence intensity at 1 to 200 uM after 3 mins by tryptophan fluorescence spectroscopy.
The subject of assay [3] is Escherichia coli. In words: Inhibition of Escherichia coli inorganic pyrophosphatase assessed as reduction in orthophosphate formation at 0.3 to 10 uM measured after 40 using pyrophosphate as substrate by malachite green dye based absorbance assay.

Activity calls are given as the source filed them. The rule behind the calls is not given here.

Take `Nc1nc2c(ncn2[C@H]2C[C@H](O)[C@@H](COP(=O)(O)OP(=O)(O)OP(=O)(O)O)O2)c(=O)[nH]1`: the result in assay [1] and in assay [2] was Active.

`CC(C)=CCc1c(O)cc2oc3cc(O)c(O)c(CC=C(C)C)c3c(=O)c2c1O`: in assay [1], the outcome was Active.

Regarding `COc1c(O)cc2oc3cc(O)c(CC=C(C)C)c(O)c3c(=O)c2c1CC=C(C)C`, the inhibition entry in assay [3] was “inactive”.

On to `COc1c(O)cc2oc3cc4c(c(O)c3c(=O)c2c1CC=C(C)C)CCC(C)(C)O4`, for which the result in assay [1] was Active. The inhibition result in assay [3] was “inactive”.

On to `CNc1cc(-c2cccc(Cl)c2Cl)nc(N)n1`, for which the result in assay [1] was Active.
